The target in this test is hTREM2 (Homo sapiens, UniProt Q9NZC2). Put plainly: TREM2 activity by cellular Syk phosphorylation (AlphaScreen/AlphaLISA) in TREM2/DAP12-HEK cells, used for Examples 1-305. The class given is cell-based. Also noted: expressed in transfected cells. The note with it: HEK293 Cells. An outline of the steps:
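Phospho-Syk (Tyr525/526) over total Syk quantified by AlphaScreen in lysates of cloned TREM2/DAP12-overexpressing HEK293 cells after 45 min compound treatment at room temperature, 1% final DMSO. Values expressed relative to 100 nM anti-TREM2 antibody (positive) and isotype IgG (negative) controls; curves fitted with 4-parameter logistic model.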
(Alpha assays give light when donor and acceptor beads are brought close together.)

Usually EC50 stands for the concentration that produces a half-maximal response. Lower therefore signals a more potent agent.

Each structure is given as a SMILES string.

Sequence of hTREM2 (Q9NZC2 19-230): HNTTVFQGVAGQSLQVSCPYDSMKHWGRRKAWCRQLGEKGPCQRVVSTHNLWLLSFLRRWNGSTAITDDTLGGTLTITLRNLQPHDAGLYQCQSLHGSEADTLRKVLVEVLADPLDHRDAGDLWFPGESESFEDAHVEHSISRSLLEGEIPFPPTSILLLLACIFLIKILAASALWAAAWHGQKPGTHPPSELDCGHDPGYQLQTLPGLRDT
Sequence of hTREM2 (O43914 22-113 partner): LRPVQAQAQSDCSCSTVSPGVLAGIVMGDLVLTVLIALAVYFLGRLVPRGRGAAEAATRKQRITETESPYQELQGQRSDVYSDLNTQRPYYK

On to `Cc1nc2nc(N3CCO[C@@H](c4cnn(C5CC5)c4)C3)nc(C34CC(C(F)(F)F)(C3)C4)c2nc1C` [Example 64, 2-((2S)-2-(1-cyclopropyl-1H-pyrazol-4-yl)-4-morpholinyl)-6,7-dimethyl-4-(3-(trifluoromethyl)bicyclo[1.1.1]pentan-1-yl)pteridine], for which the EC50 was ≤ 50 nM; the “hTREM2 Emax” value is “+++ (Emax>150 and ≤250)”.
On to `Cc1ccc(-c2nc(N3CCO[C@@H](c4cnn(C)c4)C3)nc3nc(C)c(C)nc23)c(F)c1` [Example 37, 4-(2-fluoro-4-methylphenyl)-6,7-dimethyl-2-((2S)-2-(1-methyl-1H-pyrazol-4-yl)-4-morpholinyl)pteridine], for which the EC50 is ≤ 50 nM; the “hTREM2 Emax” value is “+++ (Emax>150 and ≤250)”.
In the case of `Cc1cnc2c(C34CC(C(F)(F)F)(C3)C4)nc(N3CCO[C@@H](c4cnn(C5CC5)c4)C3)nc2n1` [Example 231, (S)-2-(1-cyclopropyl-1H-pyrazol-4-yl)-4-(7-methyl-4-(3-(trifluoromethyl)bicyclo[1.1.1]pentan-1-yl)pteridin-2-yl)morpholine], the EC50 is ≤ 50 nM; the “hTREM2 Emax” value is “+++ (Emax>150 and ≤250)”.
As to `Cc1ccc2c(C34CC(C(F)(F)F)(C3)C4)nc(N3CCO[C@@H](c4cnn(C)c4)C3)nc2n1` [Example 100, 7-methyl-2-((2S)-2-(1-methyl-1H-pyrazol-4-yl)-4-morpholinyl)-4-(3-(trifluoromethyl)bicyclo[1.1.1]pentan-1-yl)pyrido[2,3-d]pyrimidine], the 50% effective concentration (EC50) lay in the range of 50 to 500 nM; the “hTREM2 Emax” value is “++ (Emax>100 and ≤150)”.
Turning to `Cc1ccc(-c2nc(N3CCO[C@@H](c4cnn(C5CC5)c4)C3)nc3nc(C)cnc23)c(F)c1` [Example 9, 2-((2S)-2-(1-cyclopropyl-1H-pyrazol-4-yl)-4-morpholinyl)-4-(2-fluoro-4-methylphenyl)-7-methylpteridine], the half-maximal effective concentration (EC50) is ≤ 50 nM; the “hTREM2 Emax” value was “+++ (Emax>150 and ≤250)”.
Take `Cc1cnc2c(-c3ccc(Cl)cc3F)nc(N3CCO[C@H](c4cnc(C)nc4)C3)nc2n1` [Example 261, (R)-4-(4-(4-chloro-2-fluorophenyl)-7-methylpteridin-2-yl)-2-(2-methylpyrimidin-5-yl)morpholine]: the 50% effective concentration (EC50) lay within 500 to 3000 nM; the “hTREM2 Emax” value is “+++ (Emax>150 and ≤250)”.
As to `Cc1ccc(-c2nc([C@@H]3CCO[C@H](c4cnn(C)c4)C3)nc3nc(C)c(C)nc23)c(F)c1` (single isomer, unassigned) [Example 184], the EC50 was 500 to 3000 nM; the “hTREM2 Emax” value is “+++ (Emax>150 and ≤250)”.
As for `Cc1cnc2c(-c3ccc(Cl)cc3F)nc(N3CCO[C@@H](c4cnn(C)c4)C3)cc2n1` [Example 73, 5-(4-chloro-2-fluorophenyl)-2-methyl-7-((2S)-2-(1-methyl-1H-pyrazol-4-yl)-4-morpholinyl)pyrido[3,4-b]pyrazine], the EC50 lay within 50 to 500 nM and the “hTREM2 Emax” value is “++++ (Emax>250)”.
As to `Cc1nc2nc(N3CCO[C@@H](c4cnn(C)c4)C3)nc(-c3ccc(F)cc3F)c2nc1C` [Example 31, 4-(2,4-difluorophenyl)-6,7-dimethyl-2-((2S)-2-(1-methyl-1H-pyrazol-4-yl)-4-morpholinyl)pteridine], the EC50 is ≤ 50 nM; the “hTREM2 Emax” value was “+++ (Emax>150 and ≤250)”.
As for `Cc1nc2nc(N3CCO[C@@H](c4cnn(C5CC5)c4)C3)nc(-c3ccc(Cl)cc3F)c2nc1C` [Example 22, 4-(4-chloro-2-fluorophenyl)-2-((2S)-2-(1-cyclopropyl-1H-pyrazol-4-yl)-4-morpholinyl)-6,7-dimethylpteridine], the EC50 was ≤ 50 nM and the “hTREM2 Emax” value is given as “++++ (Emax>250)”.
Take `Cc1cc2c(nc(N3CCO[C@@H](c4cnn(C)c4)C3)nc2[C@H]2C[C@H](C(F)(F)F)C2)nc1C` [Example 112, 6,7-dimethyl-2-((2S)-2-(1-methyl-1H-pyrazol-4-yl)-4-morpholinyl)-4-(trans-3-(trifluoromethyl)cyclobutyl)pyrido[2,3-d]pyrimidine]: the EC50 is ≤ 50 nM; the “hTREM2 Emax” value was “+++ (Emax>150 and ≤250)”.
Turning to `Cc1cc([C@H]2CN(c3nc(C45CC(C(F)(F)F)(C4)C5)c4ccc(C)nc4n3)CCO2)ccn1` [Example 102, 7-methyl-2-((2S)-2-(2-methyl-4-pyridinyl)-4-morpholinyl)-4-(3-(trifluoromethyl)bicyclo[1.1.1]pentan-1-yl)pyrido[2,3-d]pyrimidine], the EC50 was ≤ 50 nM; the “hTREM2 Emax” value was “+ (Emax>45 and ≤100)”.
In the case of `Cc1nc2nc([C@@H]3CCO[C@H](c4cnn(C5CC5)c4)C3)nc(-c3ccc(F)cc3F)c2nc1C` [Example 241, 2-((2S,4R)-2-(1-cyclopropyl-1H-pyrazol-4-yl)tetrahydro-2H-pyran-4-yl)-4-(2,4-difluorophenyl)-6,7-dimethylpteridine], the EC50 is ≤ 50 nM; the “hTREM2 Emax” value was “+++ (Emax>150 and ≤250)”.
Regarding `Cc1cc([C@H]2CN(c3nc(-c4ccc(Cl)cc4F)c4cc(C)c(C)nc4n3)CCO2)cnn1` (single isomer, unassigned) [Example 104], the EC50 is ≤ 50 nM; the “hTREM2 Emax” value is “+++ (Emax>150 and ≤250)”.
On to `Cc1nc2nc(N3CCO[C@@H](c4cnn(C)c4)C3)nc([C@@H]3C[C@H]3C(F)(F)F)c2nc1C` [Example 57, 6,7-dimethyl-2-((2S)-2-(1-methyl-1H-pyrazol-4-yl)-4-morpholinyl)-4-((1R,2R)-2-(trifluoromethyl)cyclopropyl)pteridine], for which the EC50 is 500 to 3000 nM; the “hTREM2 Emax” value was “++ (Emax>100 and ≤150)”.
As to `Cc1nc2nc(N3CCO[C@@H](c4cnn(C5CC5)c4)C3)nc(-c3ccc(C(F)(F)F)nc3)c2nc1C` [Example 298, (S)-2-(1-cyclopropyl-1H-pyrazol-4-yl)-4-(6,7-dimethyl-4-(6-(trifluoromethyl)pyridin-3-yl)pteridin-2-yl)morpholine], the concentration giving a half-maximal response (EC50) was ≤ 50 nM; the “hTREM2 Emax” value is “+++ (Emax>150 and ≤250)”.
`Cc1nc2nc(N3CCO[C@@H](c4cnn(C)c4)C3)nc([C@H]3CC[C@@H](C)CC3)c2nc1C` [Example 135, 6,7-dimethyl-4-(cis-4-methylcyclohexyl)-2-((2S)-2-(1-methyl-1H-pyrazol-4-yl)-4-morpholinyl)pteridine]: the concentration giving a half-maximal response (EC50) lay in the range of 50 to 500 nM; the “hTREM2 Emax” value was “+ (Emax>45 and ≤100)”.
For `Cc1ncc([C@H]2CN(c3nc(-c4ccc(C(F)(F)F)nc4)c4nc(C)c(C)nc4n3)CCO2)cn1` [Example 294, (S)-4-(6,7-dimethyl-4-(6-(trifluoromethyl)pyridin-3-yl)pteridin-2-yl)-2-(2-methylpyrimidin-5-yl)morpholine], the 50% effective concentration (EC50) was in the range of 500 to 3000 nM; the “hTREM2 Emax” value was “+++ (Emax>150 and ≤250)”.
For `Cc1cc(Cl)ccc1-c1nc(N2CCO[C@@H](c3cnn(C)c3)C2)nc2nc(C)c(C)nc12` [Example 58, 4-(4-chloro-2-methylphenyl)-6,7-dimethyl-2-((2S)-2-(1-methyl-1H-pyrazol-4-yl)-4-morpholinyl)pteridine], the 50% effective concentration (EC50) fell in the range of 50 to 500 nM; the “hTREM2 Emax” value was “+++ (Emax>150 and ≤250)”.
Consider `Cc1nc2nc(N3CCO[C@@H](c4cnn(C)c4)C3)nc(-c3ccc(F)c(F)c3F)c2nc1C` [Example 61, 6,7-dimethyl-2-((2S)-2-(1-methyl-1H-pyrazol-4-yl)-4-morpholinyl)-4-(2,3,4-trifluorophenyl)pteridine], for which the EC50 is ≤ 50 nM; the “hTREM2 Emax” value is “+++ (Emax>150 and ≤250)”.
For `COc1cc([C@H]2CN(c3cc4nc(C)ccc4c(-c4ccc(Cl)cc4F)n3)CCO2)ccn1` [Example 149, 5-(4-chloro-2-fluorophenyl)-7-((2S)-2-(2-methoxy-4-pyridinyl)-4-morpholinyl)-2-methyl-1,6-naphthyridine], the concentration giving a half-maximal response (EC50) lay in the range of 50 to 500 nM and the “hTREM2 Emax” value is recorded as “++++ (Emax>250)”.
On to `Cc1nc2nc(N3CCO[C@@H](c4cnn(C)c4)C3)nc(-c3cc(F)c(F)c(F)c3)c2nc1C` [Example 18, 6,7-dimethyl-2-((2S)-2-(1-methyl-1H-pyrazol-4-yl)-4-morpholinyl)-4-(3,4,5-trifluorophenyl)pteridine], for which the EC50 was ≤ 50 nM; the “hTREM2 Emax” value is “+++ (Emax>150 and ≤250)”.
As to `Cc1nc2nc(N3CCO[C@@H](c4cnn(C)c4)C3)nc(C3CC(F)(F)C3)c2nc1C` [Example 146, 4-(3,3-difluorocyclobutyl)-6,7-dimethyl-2-((2S)-2-(1-methyl-1H-pyrazol-4-yl)-4-morpholinyl) pteridine], the 50% effective concentration (EC50) fell in the range of 500 to 3000 nM; the “hTREM2 Emax” value was “++ (Emax>100 and ≤150)”.
In the case of `Cc1cc([C@H]2CN(c3nc(C4CCC(F)(F)CC4)c4nc(C)c(C)nc4n3)CCO2)ccn1` [Example 139, 4-(4,4-difluorocyclohexyl)-6,7-dimethyl-2-((2S)-2-(2-methyl-4-pyridinyl)-4-morpholinyl)pteridine], the 50% effective concentration (EC50) is ≤ 50 nM; the “hTREM2 Emax” value is “+++ (Emax>150 and ≤250)”.
Regarding `Cc1ccc(-c2cc([C@H]3CCO[C@H](c4cnn(C)c4)C3)nc3nc(C)c(C)nc23)c(F)c1` [Example 266, 8-(2-fluoro-4-methylphenyl)-2,3-dimethyl-6-((2S,4S)-2-(1-methyl-1H-pyrazol-4-yl)tetrahydro-2H-pyran-4-yl)pyrido[2,3-b]pyrazine], the concentration for a half-maximal effect (EC50) fell in the range of 500 to 3000 nM and the “hTREM2 Emax” value is reported as “++++ (Emax>250)”.
For the molecule `Cc1nc2nc(N3CCO[C@@H](c4cnn(C)c4)C3)nc([C@H]3CC[C@H](C(F)(F)F)CC3)c2nc1C` [Example 132, 6,7-dimethyl-2-((2S)-2-(1-methyl-1H-pyrazol-4-yl)-4-morpholinyl)-4-(trans-4-(trifluoromethyl)cyclohexyl)pteridine], the concentration for a half-maximal effect (EC50) was ≤ 50 nM; the “hTREM2 Emax” value was “++ (Emax>100 and ≤150)”.
`Cc1cnc2c(-c3ccc(F)cc3F)nc(N3CCO[C@@H](c4cnn(C5CC5)c4)C3)nc2n1` [Example 7, 2-((2S)-2-(1-cyclopropyl-1H-pyrazol-4-yl)-4-morpholinyl)-4-(2,4-difluorophenyl)-7-methylpteridine]: the half-maximal effective concentration (EC50) was ≤ 50 nM; the “hTREM2 Emax” value is “+++ (Emax>150 and ≤250)”.

The record behind these values is patent publication US11884675B2, “Heterocyclic compounds as triggering receptor expressed on myeloid cells 2 agonists and methods of use” (AMGEN INC., priority 2020, dated 2024).
